Results reported in patent US20220184093A1, “ANTI-VIRAL ACTIVITY OF VPS34 INHIBITORS” (priority 2020, published 2022).

Tests used:
[1] = system: coronavirus USA_WA1/2020 SARS CoV-2; experiment: SARS CoV-2 CPE assay for antiviral activity (Vero E6 host cells, Cell Titer-Glo); type: cell-based; settings: Vero C1008, 10-point dose response, high concentration 15 μM, 72 hours, read-out: IC50 for inhibition of SARS CoV-2 mediated cell killing
[2] = system: SARS-CoV-2; experiment: microbe, parasite or virus in culture; type: cell-based; settings: Severe acute respiratory syndrome coronavirus 2, A549, 48 h; read-out: IC50 for inhibition of SARS CoV-2 mediated cell killing
[3] = in vitro; settings: African green monkey
[4] = in vitro; settings: human

Structure (SMILES)	IC50 [1] [µM]	IC50 [2] [µM]	CC50 [3] [µM]	CC50 [4] [µM]
C[C@@H]1COCCN1c1cc(N2CCN(S(=O)(=O)N3CCCC3)CC2C(F)(F)F)[nH]c(=O)c1 (stereo partly shown) [Compound 1]	0.9	0.16	29	24
C[C@@H]1COCCN1c1cc(N2CCN(S(=O)(=O)N(C)C)CC2C(F)(F)F)[nH]c(=O)c1 (stereo partly shown) [Compound 4]	1.12	0.369	> 10	> 10
C[C@@H]1COCCN1c1cc(N2CCN(S(=O)(=O)c3cncc(F)c3)CC2C(F)(F)F)[nH]c(=O)c1 (stereo partly shown) [Compound 2]	0.409	0.12	> 10	> 10
C[C@@H]1COCCN1c1cc(N2CCN(S(=O)(=O)Cc3ccc(F)cc3)CC2C(F)(F)F)[nH]c(=O)c1 (stereo partly shown) [Compound 3]	0.224	0.039	> 10	5160
